Data taken from US12268665B2, “Combination of immunotherapies with MDM2 inhibitors” (ASCENTAGE PHARMA (SUZHOU) CO., LTD., priority 2018, dated 2025).
Where two headings read alike, the source gives them in different places.

How the values were obtained:
[1] = test system: MH-22A murine hepatoma syngeneic model; experiment: In vivo efficacy study in MH-22A model; parameters: species or system mouse
Experimental: Tumor volumes were measured twice weekly in two dimensions using a caliper, and the volume was expressed in mm^3 using the formula: Tumor Volume(mm^3)=0.5a×b^2 where a and b are the long and short diameters of the tumor, respectively.
Relative tumor volume (RTV) was calculated using the following formula: RTV=Vt/V1 Where V1 and Vt are the average tumor volumes on the first day of treatment (day 1) and the average tumor volumes on a certain time point (day t).
Synergy score was calculated using the following formula (Clarke R, Breast Cancer Research & Treatment, 1997, 46(2-3):255-278): Synergy score=((A/C)×(B/C))/(AB/C); A: response to treatment A; B: response to treatment B; C: response to vehicle control; AB: combination of treatment A and B.
Standard NCI procedures were used to calculate tumor parameters. Percent tumor growth inhibition (% T/C) was calculated as the mean RTV of treated tumors (T) divided by the mean RTV of control tumors (C)×100%. The percentage T/C value is an indication of antitumor effectiveness: a value of T/C<42% is considered significant antitumor activity by the NCI. A T/C value <10% is considered to indicate highly significant antitumor activity, and is the level used by the NCI to justify a clinical trial if toxicity and certain other requirements are met (termed DN-2 level activity). A body weight loss nadir (mean of group) of greater than 20%, or greater than 20% of drug deaths are considered to indicate an excessively toxic dosage.
Each mouse was inoculated subcutaneously at the right flank region with MH-22A tumor cells (5×10^6) in 0.2 mL of PBS for tumor development. The treatments were initiated when the mean tumor size reached ˜65 mm^3. The test articles were administered to the tumor-bearing mice according to the regimen shown in the experimental design Table 3. The day of start dosing was defined as d1.

[2] = test system: MH-22A syngeneic tumor model; experiment: Efficacy in the TIL analysis study, MH-22A model (d7); type: in vivo, mouse; conditions: APG-115 10 mg/kg p.o. q2d; anti-PD-1 5 mg/kg i.p. biw; epacadostat 100 mg/kg p.o. bid; × 6 d
Experimental: Each mouse was inoculated subcutaneously at the right flank region with MH-22A tumor cells (5×10^6) in 0.2 mL of PBS for tumor development. The treatments were started when the mean tumor size reached 60 mm^3. The test articles were administered to the tumor-bearing mice according to the regimen shown in the experimental design Table 6. The day of start dosing was defined as d1.
Mice bearing MH-22A murine hepatoma tumors were treated with various agent(s) under different regimens as indicated. Isotype control antibody was included in the control.

[3] = Pharmacokinetic (PK) analysis in MH-22A tumor-bearing mice (LC/MS/MS); type: in vivo, mouse; conditions: mouse; for concentration at 4 h: oral, 100 mg/kg
Experimental: The quantitative LC/MS/MS analysis was conducted using an Exion HPLC system (AB Sciex, Ontario, Canada) coupled to an API 5500 mass spectrometer (AB Sciex, Ontario, Canada) equipped with an API electrospray ionization (ESI) source. The Phenomenex Titank phenyl-Hexyl column (50 mm×2.1 mm, 5 μm particle size) was used to achieved HPLC separation. The injection volume was 2 μl and the flow rate was kept constantly at 0.5 ml/min. Chromatography was performed with mobile phase A, acetonitrile:water:formic (5:95:0.1, by volume) and B, acetonitrile:water:formic (95:5:0.1, by volume). The mass spectrometer was operated at ESI positive ion mode for APG-115 while ESI negative mode for epacadostat. The detection of the ions was performed in the multiple reaction monitoring (MRM) mode, monitoring the transition of m/z 642.0→246.1 and 271.1→172.0 for APG-115 and IS (tolbutamide) in positive mode, 435.9→338.8 and 269.2→169.2 for epacadostat and IS (tolbutamide) in negative mode, respectively. Compounds parameters, declustering potential (DP), collision energy (CE) were 51, 61 V, 80, 18 V for APG-115 and IS in positive mode, −61, −15 V and −90, −23.5 V for epacadostat and IS in negative mode, respectively.
Blood and tumor samples were collected from 5 mice/group in group-1, group-2, group-3 and group-5 4 hrs after the final dose on […]. Blood samples were collected from 5 mice/group in group-4, group-6, group-7 and group-8 4 hrs after the final dose on d29. Approximately 100 μl blood were collected in EDTA-2K tube and 50 μl plasma were collected for PK analysis. All samples were stored at −80° C. until analysis.
In efficacy study of Example 2.1, mice in vehicle, APG-115 10 mg/kg and 50 mg/kg, and epacadostat single-agent groups were euthanized on d15 as described above. To assess PK characteristics of APG-115 and epacadostat in this study, plasma and tissue samples were collected 4 h after the last dosing on d15.

[4] = APG-115 10 mg/kg p.o. qd, anti-PD-1 10 mg/kg i.p. biw, epacadostat 100 mg/kg p.o. bid

Question: With `NS(=O)(=O)NCCNc1nonc1C(=NO)Nc1ccc(F)c(Br)c1` [epacadostat, reference compound] as the compound, how does the “RTV (Mean ± SEM) d15” value [1, 4] read?
Answer: Its value is 49.1 ± 5.8.

Question: What about the “T/C (%) d15” value [1, 4] of the same compound?
Answer: Its value is 128%.

Question: And the “Response rate (%) d15” value ([1]; APG-115 10 mg/kg, anti-PD-1 10 mg/kg, epacadostat 100 mg/kg, n=10)?
Answer: The value was 0%.

Question: What about the “antitumor activity as single agents” value ([1]; APG-115 10 and 50 mg/kg, epacadostat 100 mg/kg) of the same compound?
Answer: The value was “did not exert antitumor activity”.

Question: What about the “RTV (Mean) d7” value [2] of the same compound?
Answer: Its value is 12.7.

Question: And the “T/C (%) d7” value [2]?
Answer: The value was 82%.

Question: And the “pharmacokinetic interaction with anti-PD-1 antibody” value ([3]; in vivo)?
Answer: Its value is “no apparent pharmacokinetic interaction”.

Question: And the concentration at 4 h ([3]; plasma, 100 mg/kg daily oral, alone, read-out: plasma concentration of epacadostat)?
Answer: Its concentration at 4 h is 5890 ng/mL.

Question: And the concentration at 4 h ([3]; plasma, 100 mg/kg daily oral, combined with anti-PD-1, read-out: plasma concentration of epacadostat)?
Answer: Its concentration at 4 h is 8620 ng/mL.

Question: What about the concentration at 4 h ([3]; tumor, 100 mg/kg dosed alone, read-out: epacadostat concentration in tumor) of the same compound?
Answer: Its concentration at 4 h is 9260 ng/g.
